# Measured values published in patent US11098040B2, “Compounds and methods of use” (Ferro Therapeutics, Inc., priority 2018, dated 2021).
# Where two headings read alike, the source gives them in different places.
# Experiments:
# H2228 = test: Cell viability assay (CellTiter Glo), lung cancer cell line H2228; assay type: cell-based; conditions: Homo sapiens, NCI-H2228; Cell Line H2228; read-out: IC50
# In short: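 CellTiter Glo luminescence after 96 h compound exposure; inhibition % = (Max − sample)/Max × 100, with DMSO-only cells as Max. IC50, relative IC50 or % top inhibition derived from 9-point 3-fold titrations (top up to 30 μM, duplicates, ≤0.25% DMSO).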
# Panc 12 = test: Cell proliferation assay, pancreatic cancer cell line Panc 12; assay type: cell-based
# Experimental: (§1) Cell viability assay was performed to assess the potency of the compounds in human cancer cell lines 786-O (renal cell carcinoma) and SJSA-1 (osteosarcoma). Additional cell lines, such as those described above in Example 4 as well as various others, e.g., pancreatic cancer cell lines (Panc 02.13, BxPC-3, Panc 12, Panc 02.03, Panc 6.03, PSN-1, HPAC, and Capan-1) and prostate cancer cell lines (PC-3, DU145, 22Rv1, NCI-H660, BPH1, LNCaP, BM-1604, and MDA PCa 2b), were tested for select compounds as shown in Table 25.
# (§2) The cell proliferation assays for the compounds shown Table 25 was performed according to the protocols described herein, including Examples 4 and 6.
# PSN-1 = test: Cell proliferation assay, pancreatic cancer cell line PSN-1; assay type: cell-based; conditions: Homo sapiens, PSN1
# Experimental: as §1, §2
# Panc 02.13 = test: Cell proliferation assay, pancreatic cancer cell line Panc 02.13; assay type: cell-based
# Experimental: as §1, §2
# AsPC-1 = test: Cell viability assay (CellTiter Glo), pancreatic adenocarcinoma AsPC-1; assay type: cell-based; conditions: Homo sapiens, ASPC1; Cell Line AsPC-1; read-out: IC50
# In short: (§3)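 MiaPaCa-2 and AsPC-1 cells were seeded overnight at 37 °C and exposed for 96 h to 9-point, 3-fold dilutions from up to 30 μM (final DMSO ≤0.25%). CellTiter Glo luminescence was read, and inhibition was calculated relative to DMSO-only cells. IC50, relative IC50 or % top inhibition was derived.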
# 143B = test: Cell viability assay (CellTiter Glo), osteosarcoma 143B; assay type: cell-based; conditions: Homo sapiens, Cell Line 143B, read-out: IC50
# In short: (§4)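 Cells seeded at 500-5,000/well overnight, then 96 h exposure to 9-point 3-fold dilutions from up to 30 μM (4.6 nM-30 μM), final DMSO ≤0.25%. Viability by CellTiter Glo luminescence; inhibition relative to DMSO-only cells, yielding IC50, relative IC50 or % top inhibition.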
# Panc 02.03 = test: Cell proliferation assay, pancreatic cancer cell line Panc 02.03; assay type: cell-based; conditions: Homo sapiens
# Experimental: as §1, §2
# HT-1080 luc2 = test: Cell viability assay (CellTiter Glo), fibrosarcoma HT-1080 luc2; assay type: cell-based; conditions: Homo sapiens, Cell Line HT1080, read-out: IC50
# In short: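 HT-1080 luc2 fibrosarcoma cells seeded overnight, then exposed 96 h at 37° C to 9-point 3-fold dilutions (top up to 30 μM; DMSO ≤0.25% final). CellTiter Glo luminescence; % inhibition relative to DMSO-only wells, fitted to IC50, relative IC50 or % top inhibition.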
# HPAC = test: Cell proliferation assay, pancreatic cancer cell line HPAC; assay type: cell-based; conditions: Homo sapiens
# Experimental: as §1, §2
# Capan-1 = test: Cell proliferation assay, pancreatic cancer cell line Capan-1; assay type: cell-based; conditions: Homo sapiens
# Experimental: as §1, §2
# BxPC-3 = test: Cell proliferation assay, pancreatic cancer cell line BxPC-3; assay type: cell-based; conditions: Homo sapiens
# Experimental: as §1, §2
# MiaPaCa-2 = test: Cell viability assay (CellTiter Glo), pancreatic carcinoma MiaPaCa-2; assay type: cell-based; conditions: Homo sapiens; Cell Line Mia PaCa-2; read-out: IC50
# In short: as §3
# Panc 6.03 = test: Cell proliferation assay, pancreatic cancer cell line Panc 6.03; assay type: cell-based
# Experimental: as §1, §2
# U-2 OS = test: Cell proliferation assay, U-2 OS (Table 25); assay type: cell-based; conditions: Homo sapiens, U2OS; Cell Line U-2 OS
# Experimental: as §1, §2
# [1] = Whole blood stability, human; assay type: in vitro ADME
# From the text: (§5) The results of the assay on stability in blood and IC50 values for pancreatic cancer cell line KP4 are given below in Table 24.
# A673 = test: Cell proliferation assay, A673 (Table 25); assay type: cell-based; conditions: Homo sapiens, A673, Cell Line A673
# Experimental: as §1, §2
# [2] = Whole blood stability, mouse; assay type: in vitro ADME
# From the text: as §5
# KP4 = test: Cell viability assay (CellTiter Glo), pancreatic ductal adenocarcinoma KP4; assay type: cell-based, human; conditions: Homo sapiens
# In short: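 KP4 cells seeded at 1,000–10,000 per well, treated 96 h with 9-point 3-fold dilutions from 30 μM top (4.6 nM–30 μM, duplicates; ≤0.25% DMSO). Viability by CellTiter Glo luminescence; % inhibition relative to DMSO-only wells, giving IC50, relative IC50 or % top inhibition.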
# SJSA-1 [3] = test: Cell viability assay (CellTiter Glo), osteosarcoma SJSA-1; assay type: cell-based; conditions: Homo sapiens, 96 hours
# In short: as §4
# MG-63 = test: Cell proliferation assay, MG-63 (Table 25); assay type: cell-based; conditions: Homo sapiens
# Experimental: as §1, §2
# A549 = test: Cell viability assay, A549 cells; assay type: cell-based; conditions: Homo sapiens, A549, Cell Line A549; read-out: IC50
# In short: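 Growth of A549 cells was assessed with a cell viability assay. Cells were plated at 1,000-10,000 cells/well in 96-well plates and incubated overnight at 37° C. Nine-point 3-fold DMSO dilutions, starting from 30 μM and run in duplicate, were diluted into media (final DMSO 0.25% or less). After 96 hours, CellTiter Glo luminescence was read, inhibition was calculated against DMSO controls, and IC50 was fitted in XL-fit.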
# SJSA-1 [4] = test: Cell proliferation (Alamar Blue) assay, SJSA-1 osteosarcoma, with/without ferrostatin; assay type: cell-based, human; conditions: Homo sapiens, SJSA-1, Cell Line SJSA-1; read-out: IC50
# In short: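 Cells seeded at 5000/well, 16-24 h, then exposed 24 h at 37° C to compound, 10-0.0005 μM in 3-fold dilutions, 1% DMSO final. Alamar Blue fluorescence (ex 540/em 590 nm) read after 1.5 h; IC50 from variable-slope sigmoidal fit.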
# KHOS/NP = test: Cell proliferation assay, KHOS/NP (Table 25); assay type: cell-based; conditions: Homo sapiens, Cell Line KHOS/NP
# Experimental: as §1, §2
# KSK-ES-1 = test: Cell proliferation assay, KSK-ES-1 (Table 25); assay type: cell-based; conditions: Cell Line KSK-ES-1
# Experimental: as §1, §2
# DU145 = test: Cell proliferation assay, prostate cancer cell line DU145; assay type: cell-based; conditions: Homo sapiens, DU-145
# Experimental: as §1, §2
# MDA PCa 2b = test: Cell proliferation assay, prostate cancer cell line MDA PCa 2b; assay type: cell-based
# Experimental: as §1, §2
# NCI-H660 = test: Cell proliferation assay, prostate cancer cell line NCI-H660; assay type: cell-based
# Experimental: as §1, §2
# BM-1604 = test: Cell proliferation assay, prostate cancer cell line BM-1604; assay type: cell-based
# Experimental: as §1, §2
# BPH1 = test: Cell proliferation assay, prostate cancer cell line BPH1; assay type: cell-based; conditions: Homo sapiens, BPH-1
# Experimental: as §1, §2
# 22Rv1 = test: Cell proliferation assay, prostate cancer cell line 22Rv1; assay type: cell-based; conditions: Homo sapiens
# Experimental: as §1, §2
# PC-3 = test: Cell proliferation assay, prostate cancer cell line PC-3; assay type: cell-based; conditions: Homo sapiens
# Experimental: as §1, §2
# LNCaP = test: Cell proliferation assay, prostate cancer cell line LNCaP; assay type: cell-based; conditions: Homo sapiens
# Experimental: as §1, §2
Structure (SMILES),IC50 (H2228) [nM],IC50 (PSN-1) [nM],IC50 (Panc 02.13) [nM],IC50 (AsPC-1) [nM],IC50 (143B) [nM],IC50 (Panc 02.03) [nM],IC50 (HT-1080 luc2) [nM],IC50 (HPAC) [nM],IC50 (Capan-1) [nM],IC50 (BxPC-3) [nM],IC50 (MiaPaCa-2) [nM],IC50 (Panc 6.03) [nM],IC50 (A549) [nM],IC50 (U-2 OS) [nM],"IC50 (MG-63; MG-63, Cell Line MG-63) [nM]",also measured
CC[C@H]1Cc2c([nH]c3ccccc23)[C@H](c2ccc(N3CCOCC3)cc2)N1C(=O)CCl [Example 117],3.37,46.2,216,12.7,11.4,148,7.16,48.4,261,86.7,57,32.8,,3600,,IC50 (Panc 12; Cell Line Panc 8): 14.8 nM
COc1ccc2[nH]c3c(c2c1)C[C@H](C)N(C(=O)CCl)[C@H]3c1ccc(N2CCOCC2)cc1 [Compound 121],,,,,,,,,,,,,,,,"Whole Blood Stability % Remaining at 37° C. Human ([1]; 0 min): 100.0%; Whole Blood Stability % Remaining at 37° C. Human ([1]; 30 min): 90.3%; Whole Blood Stability % Remaining at 37° C. Human ([1]; 60 min): 61.3%; IC50 (A673): 88.5 nM; Whole Blood Stability % Remaining at 37° C. Mouse ([2]; 0 min): 100.0%; Whole Blood Stability % Remaining at 37° C. Mouse ([2]; 30 min): 84.3%; Whole Blood Stability % Remaining at 37° C. Mouse ([2]; 60 min): 50.0%; IC50 (KP4; KP-4, 96 h, pancreatic cancer cell line KP4, 96 hours, CellTiter Glo, read-out: IC50 μM KP4): < 0.01 µM"
COc1ccc2[nH]c3c(c2c1)C[C@H](C)N(C(=O)CCl)[C@H]3c1ccc(N2CCOCC2)cc1 [Example 121],16.6,175,978,69.3,,689,63.2,206,> 1000,1020,206,225,7810,4890,535,IC50 (Panc 12; Cell Line Panc 10): 58.6 nM; IC50 (SJSA-1 [4]): 108 nM; IC50 (KHOS/NP): 63.2 nM; IC50 (KSK-ES-1): 215 nM

# The remaining compounds from weak to strong by IC50 (H2228), led by results:
IC50 (H2228) [nM],IC50 (PSN-1) [nM],IC50 (Panc 02.13) [nM],IC50 (AsPC-1) [nM],IC50 (143B) [nM],IC50 (Panc 02.03) [nM],IC50 (HT-1080 luc2) [nM],IC50 (HPAC) [nM],IC50 (Capan-1) [nM],IC50 (BxPC-3) [nM],IC50 (MiaPaCa-2) [nM],IC50 (Panc 6.03) [nM],IC50 (A549) [nM],Structure (SMILES),IC50 (U-2 OS) [nM],"IC50 (MG-63; MG-63, Cell Line MG-63) [nM]",also measured
1.7,19.9,120,7.57,5.22,64.1,4.82,28.6,169,71.1,35.1,16.9,5700,CCCC[C@H]1Cc2c([nH]c3ccccc23)[C@H](c2ccc(N3CCOCC3)cc2)N1C(=O)CCl [Compound 240],4280,39.7,"IC50 (Panc 12; Cell Line Panc 11): 8.55 nM; IC50 (DU145): 6.2 nM; IC50 (MDA PCa 2b): > 2000 nM; IC50 (NCI-H660): 31.7 nM; IC50 (BM-1604): > 2000 nM; IC50 (BPH1): 203 nM; IC50 (22Rv1): 22.9 nM; IC50 (PC-3): 3.9 nM; IC50 (MG-63; MG-63, Cell Line MG-68): > 3000 nM; IC50 (LNCaP): 574 nM"
1.38,17.6,103,7.34,4.74,48.9,3.81,20.5,130,54.4,16.4,15.6,5370,CCC[C@H]1Cc2c([nH]c3ccccc23)[C@H](c2ccc(N3CCOCC3)cc2)N1C(=O)CCl [Example 118],5020,39.3,"IC50 (SJSA-1 [3]): 28 nM; IC50 (Panc 12; Cell Line Panc 9): 6.38 nM; IC50 (KP4; KP-4, Cell Line KP4, read-out: IC50): 0.00092 µM; IC50 (MG-63; MG-63, Cell Line MG-67): > 3000 nM"
